For one assay, the system named is HCT-116. Briefly: Cytotoxicity against human HCT-116 cells assessed as reduction in cell viability by SRB assay. Format: functional, cell-based. For orientation: In SRB staining, fixed cells bind dye roughly in proportion to their protein.
Assay [1] relates to HepG2. The assay is described as follows: Cytotoxicity against human HepG2 cells assessed as reduction in cell viability by SRB assay. Format: functional, cell-based.
Another assay deals with WI-38. Briefly: Cytotoxicity against human WI-38 cells assessed as reduction in cell viability by SRB assay. Type of assay: cell-based.
Assay [2] concerns the target Epidermal growth factor receptor (Homo sapiens, UniProt P00533). The assay is described as follows: Inhibition of EGFR (unknown origin) by FRET assay.
In the next assay the test system is MCF7. The assay is described as follows: cells. Particulars: Homo sapiens.
For assay [3], the system named is HepG2. Briefly: Induction of apoptosis in human HepG2 cells assessed as early apoptotic cells at 5 uM incubated for 24 hrs by annexin V-FITC and PI staining based flow cytometry analysis (reference value: 0.87 %). Type of assay: functional. In general terms: In flow cytometry, cells or beads pass a laser one at a time.
Assay [4] deals with HepG2. Briefly: Induction of apoptosis in human HepG2 cells assessed as late apoptotic cells at 5 uM incubated for 24 hrs by annexin V-FITC and PI staining based flow cytometry analysis (reference value: 0.56 %). Type of assay: functional.
The test system of assay [5] is HepG2. Briefly: Induction of apoptosis in human HepG2 cells assessed as necrotic cells at 5 uM incubated for 24 hrs by annexin V-FITC and PI staining based flow cytometry analysis (reference value: 0.43 %). Type of assay: functional.
Assay [6] concerns HepG2. The assay is described as follows: Induction of apoptosis in human HepG2 cells at 5 uM incubated for 24 hrs by annexin V-FITC and PI staining based flow cytometry analysis (reference value: 1.86 %). Format: functional.
Assay [7] relates to HepG2. Briefly: Induction of cell cycle arrest in human HepG2 cells assessed as G0/G1 phase accumulation by flow cytometry analysis (reference value: 57.36 %). Format: functional.
Assay [8] concerns HepG2. Briefly: Induction of cell cycle arrest in human HepG2 cells assessed as S phase accumulation by flow cytometry analysis (reference value: 36.22 %). Format: functional.
For assay [9], the system named is HepG2. Briefly: Induction of cell cycle arrest in human HepG2 cells assessed as G2/M phase accumulation by flow cytometry analysis (reference value: 6.32 %). Format: functional.
Assay [10] concerns HepG2. Briefly: Induction of cell cycle arrest in human HepG2 cells assessed as preG1 phase accumulation by flow cytometry analysis (reference value: 1.86 %). Format: functional.
Assay [11] has as its system HepG2. Briefly: Induction of apoptosis in human HepG2 cells assessed as Bax level (reference value: 27.35 pg/ml). Format: functional.
Assay [12] deals with HepG2. The assay is described as follows: Induction of apoptosis in human HepG2 cells assessed as Bcl2 level (reference value: 6.639 pg/ml). Type of assay: functional.

Epidermal growth factor receptor, sequence (P00533 whole entry): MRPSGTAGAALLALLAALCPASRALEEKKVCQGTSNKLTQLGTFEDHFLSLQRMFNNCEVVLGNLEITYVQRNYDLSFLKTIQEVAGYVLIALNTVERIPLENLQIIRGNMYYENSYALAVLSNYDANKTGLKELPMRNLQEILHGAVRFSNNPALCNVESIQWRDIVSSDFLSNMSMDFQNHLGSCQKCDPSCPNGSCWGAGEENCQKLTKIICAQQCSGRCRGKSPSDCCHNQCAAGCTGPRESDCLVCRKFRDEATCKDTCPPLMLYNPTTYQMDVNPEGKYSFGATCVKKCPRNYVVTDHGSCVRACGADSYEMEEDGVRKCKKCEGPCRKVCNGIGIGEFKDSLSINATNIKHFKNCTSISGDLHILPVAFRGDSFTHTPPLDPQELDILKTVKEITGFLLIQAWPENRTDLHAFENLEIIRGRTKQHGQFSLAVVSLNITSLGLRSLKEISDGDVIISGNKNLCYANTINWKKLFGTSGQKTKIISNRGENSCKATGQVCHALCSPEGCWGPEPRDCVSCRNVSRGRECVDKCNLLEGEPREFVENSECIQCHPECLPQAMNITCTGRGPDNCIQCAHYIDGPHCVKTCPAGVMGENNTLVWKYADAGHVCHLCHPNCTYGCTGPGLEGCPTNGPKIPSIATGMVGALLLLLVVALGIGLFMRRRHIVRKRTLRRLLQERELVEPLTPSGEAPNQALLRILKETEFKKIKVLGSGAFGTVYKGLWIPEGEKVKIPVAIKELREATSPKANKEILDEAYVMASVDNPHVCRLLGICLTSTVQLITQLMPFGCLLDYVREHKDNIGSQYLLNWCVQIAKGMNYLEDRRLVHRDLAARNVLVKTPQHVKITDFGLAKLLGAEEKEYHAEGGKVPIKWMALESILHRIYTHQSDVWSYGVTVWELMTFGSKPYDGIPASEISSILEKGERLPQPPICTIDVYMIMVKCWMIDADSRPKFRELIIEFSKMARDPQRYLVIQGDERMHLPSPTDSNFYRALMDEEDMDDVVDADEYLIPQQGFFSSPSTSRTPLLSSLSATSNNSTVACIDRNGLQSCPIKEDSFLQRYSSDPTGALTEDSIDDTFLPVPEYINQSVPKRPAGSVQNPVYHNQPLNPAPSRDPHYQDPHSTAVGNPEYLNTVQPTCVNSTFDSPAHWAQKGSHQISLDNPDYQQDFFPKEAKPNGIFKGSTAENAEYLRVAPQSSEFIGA
Description for MCF7: Cytotoxicity against human MCF7 cells assessed as reduction in cell viability by SRB assay

For orientation: IC50 means the concentration needed to halve the response being measured. Consider `S=C(NNc1ccccc1)Nc1ccc2c(c1)OCO2`, for which the IC50 worked out at 1.11 µM in the assay with HCT-116; 1.74 µM with HepG2 [1]; 271 µM in the assay on WI-38; 8.26 µM in [2]; 7 µM with MCF7.

Regarding `O=S(=O)(Nc1ccccn1)c1ccc(NC(=S)Nc2ccc3c(c2)OCO3)cc1`, the IC50 in the assay on HCT-116 amounted to 4.78 µM; in the assay with HepG2 [1] it was 7.03 µM; with WI-38 it was 189 µM; in assay [2] it was 1.89 µM; in the assay with MCF7, 13.4 µM.

Turning to `Cc1c(NC(=S)Nc2ccc3c(c2)OCO3)c(=O)n(-c2ccccc2)n1C`, the IC50 in the assay on HCT-116 turned out to be 3.16 µM; in the assay with HepG2 [1], 3.79 µM; in the assay on WI-38 it was 176 µM; in [2] it was 0.358 µM; in the assay on MCF7, 17 µM. Also, the Activity in the assay with HepG2 [3] turned out to be 7.28%; in the assay with HepG2 [4], 10.62%; in the assay on HepG2 [5] it was 2.53%; in the assay with HepG2 [6], 20.43%; in the assay on HepG2 [7], 29.15%; with HepG2 [8], 30.21%. The Activity in the assay on HepG2 [9] was 40.64%; in the assay with HepG2 [10] it was 20.43%; in the assay on HepG2 [11], 215.8 pg/mL; with HepG2 [12], 3.374 pg/mL.

For `O=C(NNC(=S)Nc1ccc2c(c1)OCO2)c1ccncc1`, the IC50 in the assay on HCT-116 was determined as 5.63 µM; with HepG2 [1] it was 11.6 µM; with WI-38, 184 µM; in the assay with MCF7 it was 25.2 µM.

Take `S=C(Nc1ccc2c(c1)OCO2)Nc1c2ccccc2nc2ccccc12`: the IC50 is 1.71 µM in the assay with HCT-116; 2.14 µM in the assay with HepG2 [1]; 227 µM in the assay on WI-38; 0.493 µM in assay [2]; 4.63 µM in the assay on MCF7. Moreover, the Activity was 6.14% with HepG2 [3]; 8.68% with HepG2 [4]; 2.43% with HepG2 [5]; 17.25% with HepG2 [6]; 37.12% with HepG2 [7]; 25.52% in the assay with HepG2 [8]. In addition, the Activity amounted to 37.36% with HepG2 [9], 17.25% in the assay with HepG2 [10], 201.7 pg/mL with HepG2 [11] and 4.147 pg/mL in the assay with HepG2 [12].

For the compound `O=S(=O)(NNC(=S)Nc1ccc2c(c1)OCO2)c1ccccc1`, the IC50 came to 10 µM with HCT-116, 11.7 µM with HepG2 [1], 207 µM with WI-38 and 17.6 µM with MCF7.

Consider `S=C(NN=C(c1ccccc1)c1ccccc1)Nc1ccc2c(c1)OCO2`, for which the half-inhibitory concentration (IC50) in the assay on HCT-116 amounted to 2.4 µM; in the assay on HepG2 [1], 5.76 µM; in the assay with WI-38, 192 µM; in assay [2] it was 0.993 µM; with MCF7, 10.8 µM.

In the case of `NS(=O)(=O)c1ccc(NC(=S)Nc2ccc3c(c2)OCO3)cc1`, the IC50 is 86.3 µM in the assay with HCT-116, 95.7 µM with HepG2 [1], 325 µM with WI-38 and 103 µM in the assay with MCF7.

Turning to `N=C(N)NS(=O)(=O)c1ccc(NC(=S)Nc2ccc3c(c2)OCO3)cc1`, the IC50 with HCT-116 was 127 µM; in the assay with HepG2 [1], 132 µM; in the assay on WI-38, 364 µM; in the assay with MCF7 it was 160 µM.

`O=C(c1ccccc1)c1ccccc1NC(=S)Nc1ccc2c(c1)OCO2`: the IC50 in the assay on HCT-116 worked out at 171 µM; in the assay with HepG2 [1], 167 µM; in the assay with WI-38, 435 µM; with MCF7 it was 179 µM.

Consider `O=S(=O)(Nc1nccs1)c1ccc(NC(=S)Nc2ccc3c(c2)OCO3)cc1`, for which the 50% inhibitory concentration (IC50) in the assay on HCT-116 was 2.53 µM; with HepG2 [1] it was 2.99 µM; in the assay on WI-38, 201 µM; in [2], 1.62 µM; with MCF7 it was 11.7 µM.

Consider `O=C1c2ccccc2C(=O)N1NC(=S)Nc1ccc2c(c1)OCO2`, for which the IC50 with HCT-116 was determined as 55.4 µM; in the assay with HepG2 [1], 59.1 µM; in the assay with WI-38 it was 287 µM; with MCF7, 68.9 µM.

For the origin of these results see ChEMBL document CHEMBL4765304, “Synthesis and anticancer activity of thiourea derivatives bearing a benzodioxole moiety with EGFR inhibitory activity, apoptosis assay and molecular docking study” (Eur J Med Chem, 2020).
